Source: patent publication US20220117940A1, “COMPOSITION FOR INCREASING PREGNANCY RATE OF RUMINANTS AND PREPARATION METHOD AND APPLICATION THEREOF” (CHINA AGRICULTURAL UNIVERSITY, priority 2020, published 2022)
Marks after values point to notes of the source that are not given here.

Assays:
mouse = details: 5 mg/kg injected before the MT1 receptor peak; cited from earlier work
Holstein cows = assay: Serum reproductive hormone levels after melatonin injection in cows exposed to ovsynch TAI; type: in vivo; details: mean ± standard error; for P (progesterone) levels: pregnant cows, Day 30 of pregnancy; for P (progesterone) levels / E2 (estradiol) levels / LH levels: P<0.05; for E2 (estradiol) levels / LH levels / FSH levels: serum; for E2 (estradiol) levels / LH levels: 8 hours after injection of GnRH plus melatonin; for FSH levels: after melatonin with last dose of GnRH, no significant change (P>0.05)
Excerpt: The process is substantially same as that of Example 2, except that blood was collected at each stage from ovsynch TAI to pregnancy tests, in order to determine the changes in relevant reproductive hormones in ovulating cows.

[1] = Serum MT concentration after melatonin injection in cows exposed to ovsynch TAI (liquid chromatography); details: melatonin injected with last dose of GnRH, PG-PG-GnRH-PG-GnRH ovsynch TAI, mean ± standard error, P<0.05 vs no melatonin
[2] = test system: Holstein cows exposed to natural ovulation; assay: Pregnancy and calving rates of cows exposed to natural ovulation with melatonin injection; type: in vivo
Protocol: (§1) 50 to 60 days after the insemination, the pregnancy tests were performed on the Holstein cows by means of rectal examination. Alternatively, 32 days after the insemination, the pregnancy rates were calculated by means of B-scan ultrasonography and pregnancy detection kits.

[3] = test system: Holstein cows exposed to TAI; assay: Pregnancy and calving rates of cows exposed to ovsynch TAI with melatonin injection; type: in vivo
Protocol: A melatonin injection of 2-3 mL was injected in combination with the injection of GnRH of ovsynch TAI in cows (as shown in FIG. 1), with B-scan pregnancy tests on Days 32-35, or pregnancy tests by recto-vaginal technique on Day 60. The pregnancy rates were calculated.
2 mL of the injection prepared in Example 1 was administrated together with the last injection of GnRH to multipara Holstein cows (1-3 pregnancies) exposed to postpartum ovsynch TAI. In this process, a randomized administration approach was used, for example administer to every other cow in which the first cow was administrated, the second was not administrated, the third was administrated, and so on.
as §1

[4] = test system: cows exposed to TAI or natural ovulation; assay: Pregnancy and calving rates of first insemination in cows (TAI or natural ovulation) with melatonin injection; type: in vivo, Holstein cows
Protocol: as §1

[5] = first insemination, TAI plus natural ovulation, of 162

For `COc1ccc2[nH]cc(CCNC(C)=O)c2c1` [Melatonin, N-acetyl-5-methoxytryptamine], the “Expression of corpus luteum marker genes Akr1c18 and Cyp11a1” value (mouse) is given as “upregulate”, the “Level of progesterone in mouse serum” value (mouse) is given as “significantly increase” and the “P (progesterone) levels” value (Holstein cows) is given as 0.18±0.02. For the same compound, the “P (progesterone) levels” value (Holstein cows; listed as MT) was 0.1825±0.0235, the “E2 (estradiol) levels” value (Holstein cows) was 11.68±0.88 and the LH levels (Holstein cows) was 5.02±0.23. For the same compound, the “E2 (estradiol) levels” value (Holstein cows; listed as MT) was 11.678±0.8834, the LH levels (Holstein cows; listed as MT) was 5.022±0.2324 and the FSH levels (Holstein cows) was 2.48±0.25. The FSH levels (Holstein cows; listed as MT) was 2.482±0.2463, the “MT levels in blood (serum)” value [1] was 4.35±0.53 and the “MT levels in blood (serum)” value ([1]; listed as MT) was 4.3465±0.5286. For the same compound, the “Increase of pregnancy rate relative to control” value ([2]; 14.60/26.25) was “more than 55.62%”, the Calving rate ([2]; P<0.05 vs control) was 29.58%^A and the Pregnancy rate ([2]; P<0.05 vs control) was 40.85%^A. The Number of calves ([2]; of 71 cows) was 21, the “Number of pregnant cows” value ([2]; of 71 cows) was 29 and the Pregnancy rate ([3]; TAI, 2 mL of 15 mg/mL injection with last GnRH, P<0.05 vs control) was 36.26%^a. For the same compound, the “Number of pregnant cows” value ([3]; TAI, 2 mL of 15 mg/mL injection with last GnRH, of 91 cows) was 33, the Calving rate ([3]; TAI, P<0.05 vs control) was 25.27%^a and the Number of calves ([3]; TAI, of 91 cows) was 23. For the same compound, the “Increase of pregnancy rate relative to control” value ([3]; multipara cows, ovsynch TAI, 9.68/26.58) was “more than 36.42%”, the “Increase of pregnancy rate” value ([3]; preparation comprising melatonin of 15 mg/mL, cows exposed to ovsynch TAI) was 11% and the “Increase of pregnancy rate relative to control” value ([4]; TAI or natural ovulation, 11.85/26.42) was “more than 44.85%”. The “Pregnancy rate of first insemination” value ([4]; TAI plus natural ovulation, P<0.05 vs control) was 38.27%^a, the Calving rate ([4]; first insemination, TAI plus natural ovulation, P<0.05 vs control) was 27.16%^a and the Number of calves [4, 5] was 44. For the same compound, the “Number of pregnant cows” value [4, 5] was 62.
